Source: patent publication US20120177693A1, “DEEP LUNG PULMONARY DELIVERY OF TREPROSTINIL” (Aradigm Corporation, priority 2008, published 2012)
Where “and” joins values, the source holds several entries; their conditions need not be identical. Equal values may be shown once.

What was measured:
[1] = Gamma scintigraphy of 99mTc-DTPA radiolabeled treprostinil sodium inhaled via AERx Essence System or Nebu-Tec Optineb nebulizer, two-way crossover, 14 healthy male subjects; type: in vivo, human; details: for Calculated Lung Dose: monosodium salt; for Dose (calculated dose to lung): Median
Text: This was an open label study conducted in a single-center, using a randomized, two-way crossover design. Sixteen healthy adult male subjects were to be enrolled to receive study treatments. Upon provision of written informed consent, each study candidate underwent a pre-study evaluation and screening to determine eligibility to participate.
On each of two dosing days, eligible subjects underwent dosing with ^99mTc-labeled treprostinil sodium using either the AERx Essence System or the Nebu-Tec Optineb nebulizer. Following their initial study dose, subjects underwent a washout period of approximately 48 hours before completing a second (crossover) study dose.
Immediately following each study dose, subjects underwent gamma scintigraphy and multiple samplings of venous blood to characterize treprostinil lung deposition and plasma pharmacokinetics.
Subjects also underwent a Krypton-81m (^81mKr) gas ventilation imaging procedure. This procedure could have been performed on any dosing day followed by a 30 minute washout before any of the aerosol dosing procedures, if there were logistical/scheduling problems, ventilation imaging could have been done after dosing. Alternatively the ^81mKr ventilation scan could have been performed on a separate visit. Additionally transmission images were also acquired this could have been performed on any dosing day prior to any of the aerosol dosing procedures or on a separate visit
A single “bulk” treprostinil sodium formulation (600 μg/mL) was used for both the Nebu-Tec Optineb nebulizer and the AERx Essence. The bulk drug solutions were diluted by the addition of ^99mTc-DTPA (2000 MBq/mL) at a ratio of 19:1, i.e. 0.05 mL of ^99mTc-DTPA was added to 0.950 mL of bulk drug solution. Each mL of the radiolabeled drug solutions therefore contained 100 MBq of ^99mTc-DTPA and 570 μg of treprostinil. The radiolabel ^99mTc as ^99mTc-DTPA was acquired from an approved supplier (i.e., the Medical Physics Department, University Hospital of Wales, Heath, Cardiff [Manufacturers License Number: MS/IMP18523]).
In this study, the radiolabel marker (^99mTc-DTPA) deposition profiles obtained following administration of a radiolabeled treprostinil sodium formulation will be evaluated using gamma to assess the performance for the two delivery systems. Gamma scintigraphy offers a precise and accurate method of evaluating the deposition of an inhaled radiolabeled aerosol in the oropharynx and lung.
To compare the emitted dose, delivered lung dose, and the central-to-peripheral (sC/P) lung deposition of radiolabeled treprostinil sodium delivered via the AERx Essence System versus the Nebu-Tec Optineb nebulizer using gamma scintigraphy.
In addition the following secondary efficacy variables were determined, the dose (μg) of treprostinil deposited in the lung, the percent dose (emitted and loaded) of radiolabeled treprostinil sodium in the oropharyngeal region from both devices, the percent loaded dose remaining in both devices and associated equipment e.g. mouthpiece.
Scintigraphic data were used to determine the fraction of the loaded dose delivered to the lung which was subsequently utilised to estimate the lung dose in terms of μg of Treprostinil. For AERx, the calculation of lung dose was derived by normalising the emitted dose to lung for the fraction (%) of the loaded dose retained post-administration i.e. within the device and dosage forms. The actual dose within the AERx strips (a single dose consisted of two strips) was calculated from the nominal treprostinil concentration adjusted for the actual concentration determined by HPLC assay of the stock radiolabeled drug solutions on each dosing day (see Table 14.2.1.5).
The Optineb device contained a drug reservoir (nebuliser cup) from which each dose (six separate puffs) was metered. To determine the dose available to the subject an in vitro test to collect a single emitted dose (ED) was performed for each device following subject dosing.

[2] = Safety and tolerability of inhaled treprostinil sodium (adverse events, laboratory, vital signs, ECG, spirometry), 14 healthy male subjects

## CCCCC[C@H](O)CC[C@@H]1[C@H]2Cc3cccc(OCC(=O)[O-])c3C[C@H]2C[C@H]1O.[Na+] [treprostinil, (1R,2R,3aS,9aS)-[[2,3,3a,4,9,9a-Hexahydro-2-hydroxyl-1-[(3S)-3-hydroxyoctyl]-1H-benz[f]inden-5-yl]oxy]acetic acid monosodium salt]
[1]; AERx vs nebulizer
  Greater treprostinil lung dose for AERx than for the nebulizer: 20%
[1]; via AERx, Max, listed as Treprostinil
  Calculated Lung Dose: 30.76 µg
[1]; via AERx, Max
  Calculated Lung Dose: 30.756 µg
[1]; via AERx, Mean, listed as Treprostinil
  Calculated Lung Dose: 26.07 µg
[1]; via AERx, Mean
  Calculated Lung Dose: 26.07 µg and 26.072 µg
[1]; via AERx
  Dose (calculated dose to lung): 27.383 µg
[1]; via AERx, Min, listed as Treprostinil
  Calculated Lung Dose: 12.77 µg
[1]; via AERx, Min
  Calculated Lung Dose: 12.770 µg
[1]; via Optineb, Max, listed as Treprostinil
  Calculated Lung Dose: 30.69 µg
[1]; via Optineb, Max
  Calculated Lung Dose: 30.691 µg
[1]; via Optineb, Mean, listed as Treprostinil
  Calculated Lung Dose: 19.58 µg
[1]; via Optineb, Mean
  Calculated Lung Dose: 19.58 µg and 19.579 µg
[1]; via Optineb
  Dose (calculated dose to lung): 18.470 µg
[1]; via Optineb, Min, listed as Treprostinil
  Calculated Lung Dose: 9.30 µg
[1]; via Optineb, Min
  Calculated Lung Dose: 9.296 µg
[2]; biochemistry, hematology, urinalysis
  Changes in laboratory parameters: no clinically-significant changes
[2]; both devices
  Serious Adverse Events (SAE's) or Suspected Unexpected Serious Adverse Reactions (SUSAR's): no Serious Adverse Events
[2]; for inhalation
  Tolerability in healthy subjects: well-tolerated
[2]; human, in vivo
  Changes in laboratory parameters, physical examination, vital signs, respiratory function or ECGs: no clinically-significant changes
[2]; human, in vivo, po
  Changes in vital signs (blood pressure, pulse and oral temperature): no clinically-significant changes
[2]; via AERx Essence
  Number of Subjects (% brackets) with […]: 0
[2]; via Nebu-Tec Optineb
  Number of Subjects (% brackets) with […]: 1 (7.1)
  Number of Subjects with […], relationship POSSIBLE: 0
  Number of Subjects with […], relationship PROBABLE: 0
  Number of Subjects with […], relationship UNLIKELY: 1
